Target: T1, PPARγ (Homo sapiens, UniProt P37231)
T1 construct: expressed in transfected cells; host or cells: U2-OS (human osteogenic sarcoma), transient electroporation
T1 sequence (P37231 238-503 limits assumed): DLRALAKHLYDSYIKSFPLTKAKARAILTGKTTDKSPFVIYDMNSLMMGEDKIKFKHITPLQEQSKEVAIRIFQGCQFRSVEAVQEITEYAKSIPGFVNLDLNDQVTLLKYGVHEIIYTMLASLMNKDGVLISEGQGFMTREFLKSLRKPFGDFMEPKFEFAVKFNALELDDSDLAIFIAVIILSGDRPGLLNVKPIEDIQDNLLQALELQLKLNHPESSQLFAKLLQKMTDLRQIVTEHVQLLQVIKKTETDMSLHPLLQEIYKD
Assay: GAL4-PPARγ ligand binding domain luciferase reporter transactivation in transiently transfected U2-OS cells
Assay type: cell-based
Conditions: selectivity PPARα over PPARγ
Description: The compounds of Examples 5-9 were tested in the assays described in WO03/051821.
Compounds were dissolved in DMSO to obtain 16 mM stock solutions. Before assays, stock solutions were further diluted in DMSO and culture media.
U2-OS, (Osteogenic sarcoma, Human) was purchased from ATCC, USA. Cells were expanded and refrozen in batches from passage number six. Cells were cultured in Dulbecco's modified Eagle medium (DMEM) with 25 mM glucose, 2 mM glutamin or 4 mM L-alanyl-L-glutamine, 10% fetal calf serum, at 5% CO2. Phosphate buffered saline (PBS) without addition of calcium or magnesium was used. All cell culture reagents were from Gibco (USA) and 96-well cell culture plates were purchased from Wallah.
Standard recombinant DNA techniques were carried out as described by Ausubel (7). The Luciferase reporter vector, pGL5UAS (clone consists of five copies of the GAL4 DNA binding sequence, 5′-[…]-3′, cloned into the SacI/XhoI sites of pGL3-Promoter (Promega). The SacI/XhoI fragment carrying the UAS sites was constructed using annealed overlapping oligonucleotides.
Expression vectors used are based upon pSG5 (Stratagene). All vectors contain an EcoRI/NheI fragment encoding the DNA binding domain of GAL4 (encoding amino acid positions 1-145 of database accession number P04386) followed by an in-frame fusion to a fragment encoding the nuclear localisation sequence from T antigen of Polyoma Virus.
The nuclear localisation sequence was constructed using annealed overlapping oligonucleotides creating NheI/KpnI sticky ends(5′-[…]-3′). The ligand binding domains from human and mouse PPARa and human and mouse PPARy were PCR amplified as KpnI/BamHI fragments and cloned in frame to the GAL4 DNA binding domain and the nuclear localisation sequence. The sequence of all plasmid constructs used were confirmed by sequencing. The following expression vectors were used for transient transfections:
Frozen stocks of cells from passage number six were thawed and expanded to passage number eight before transfections. […]

ratio EC50 (PPARγ): EC50 (PPARα) | SMILES
>400 | CCO[C@@H](Cc1ccc(OCC(=O)N(Cc2ccc(Cl)cc2)Cc2ccc(C(C)(C)C)cc2)cc1)C(=O)O [Example 23, (2S)-3-(4-{2-[(4-tert-Butylbenzyl)(4-chlorobenzyl)amino]-2-oxoethoxy}phenyl)-2-ethoxypropanoic acid]
>1000 | CCO[C@@H](Cc1ccc(OCC(=O)N(Cc2ccc(Cl)cc2)Cc2ccc(Cl)cc2)cc1)C(=O)O [Example 22, (2S)-3-(4-{2-[bis(4-Chlorobenzyl)amino]-2-oxoethoxy}phenyl)-2-ethoxypropanoic acid]
>900 | CCO[C@@H](Cc1ccc(OCC(=O)N(Cc2ccc(C(F)(F)F)cc2)Cc2ccc(C(F)(F)F)cc2)cc1)C(=O)O [Example 25, (2S)-3-[4-(2-{bis[4-(Trifluoromethyl)benzyl]amino}-2-oxoethoxy)phenyl]-2-ethoxypropanoic acid]

From patent US7488844B2, “Therapeutic agents” (AstraZeneca AB, priority 2001, dated 2009)
